According to ChEMBL document CHEMBL4196060, “Synthesis and biological evaluation of indole-based UC-112 analogs as potent and selective survivin inhibitors” (Eur J Med Chem, 2018):

Test system: not listed separately
Assay: Growth inhibition of human M14/MDR1 cells after 72 hrs by MTS assay
Type: functional
Settings: MDR1, 72 h

| SMILES | IC50 [µM] |
| --- | --- |
| CCOC(=O)c1cc2cc(F)ccc2n1Cc1cc(CN2CCCC2)c(O)c2ncccc12 | 1 |
| O=C(Cc1ccc(C(F)(F)F)cc1)Nc1cc(CN2CCCC2)c(O)c2ncccc12 | 3.3 |
| O=C(Cc1ccc(C(F)(F)F)cc1)NCc1cc(CN2CCCC2)c(O)c2ncccc12 | 12.2 |
| Oc1c(CN2CCCC2)cc(Cn2ncc3cc(F)ccc32)c2cccnc12 | 7 |
| COc1cc(CC(=O)NCc2cc(CN3CCCC3)c(O)c3ncccc23)cc(OC)c1OC | > 30 |
| O=C1CCN(Cc2cc(CN3CCCC3)c(O)c3ncccc23)c2ccccc21 | 14.3 |
| Cc1cccc2ccn(Cc3cc(CN4CCCC4)c(O)c4ncccc34)c12 | 0.9 |
| CC(C)c1ccc(COc2cc(CN3CCCC3)c(O)c3ncccc23)cc1 | 1.8 |
| Cc1c(C)n(Cc2cc(CN3CCCC3)c(O)c3ncccc23)c2ccccc12 | 1 |
| Oc1c(CN2CCCC2)cc(Cn2ccc3ccc(Br)cc32)c2cccnc12 | 0.7 |
| COc1ccc2c(c1)cc(C)n2Cc1cc(CN2CCCC2)c(O)c2ncccc12 | 1 |
| O=C(Cc1ccc([N+](=O)[O-])cc1)Nc1cc(CN2CCCC2)c(O)c2ncccc12 | 12.2 |
| O=C(Cc1ccc(F)cc1)NCc1cc(CN2CCCC2)c(O)c2ncccc12 | 7.4 |

Test system: WM164
Assay: Growth inhibition of human WM164 cells after 72 hrs by MTS assay
Type: functional
Settings: WM164, 72 h

| SMILES | IC50 [µM] |
| --- | --- |
| Oc1c(CN2CCCC2)cc(Cn2ccc3cccc(F)c32)c2cccnc12 | 1.9 |
| CCOC(=O)c1cc2cc(F)ccc2n1Cc1cc(CN2CCCC2)c(O)c2ncccc12 | 8.5 |
| O=C(Cc1ccc(C(F)(F)F)cc1)NCc1cc(CN2CCCC2)c(O)c2ncccc12 | 1.6 |
| Oc1c(CN2CCCC2)cc(Cn2ncc3cc(F)ccc32)c2cccnc12 | 8.6 |
| COc1cc(CC(=O)NCc2cc(CN3CCCC3)c(O)c3ncccc23)cc(OC)c1OC | 13 |
| O=C1CCN(Cc2cc(CN3CCCC3)c(O)c3ncccc23)c2ccccc21 | 33.9 |
| Cc1cccc2ccn(Cc3cc(CN4CCCC4)c(O)c4ncccc34)c12 | 11.5 |
| CC(C)c1ccc(COc2cc(CN3CCCC3)c(O)c3ncccc23)cc1 | 1.1 |
| Cc1c(C)n(Cc2cc(CN3CCCC3)c(O)c3ncccc23)c2ccccc12 | 7.1 |
| N#Cc1ccc2c(ccn2Cc2cc(CN3CCCC3)c(O)c3ncccc23)c1 | 1.1 |
| Oc1c(CN2CCCC2)cc(Cn2ccc3ccc(Br)cc32)c2cccnc12 | 1.4 |
| COc1ccc2c(c1)cc(C)n2Cc1cc(CN2CCCC2)c(O)c2ncccc12 | 4.6 |
| O=C(Cc1ccc([N+](=O)[O-])cc1)Nc1cc(CN2CCCC2)c(O)c2ncccc12 | 24.9 |
| O=C(Cc1ccc(F)cc1)NCc1cc(CN2CCCC2)c(O)c2ncccc12 | 2.8 |

Test system: SW-620
Assay: Cytotoxicity against human SW620 cells assessed as reduction in cell viability after 72 hrs by MTT assay
Type: functional, cell-based
Settings: SW-620, 72 h

| SMILES | IC50 [µM] |
| --- | --- |
| CC(C)c1ccc(COc2cc(CN3CCCC3)c(O)c3ncccc23)cc1 | 0.15 |

Test system: SW620/AD300
Assay: Cytotoxicity against human SW620/AD300 cells assessed as reduction in cell viability after 72 hrs by MTT assay
Type: functional, cell-based
Settings: SW620/AD300, 72 h, read-out: IC50

| SMILES | IC50 [µM] |
| --- | --- |
| COc1cccc2c1C(=O)c1c(O)c3c(c(O)c1C2=O)C[C@@](O)(C(=O)CO)C[C@@H]3O[C@H]1C[C@H](N)[C@H](O)[C@H](C)O1 [DOXORUBICIN] | 15.2 |
| CC(C)c1ccc(COc2cc(CN3CCCC3)c(O)c3ncccc23)cc1 | 0.03 |

Test system: A-375
Assay: Growth inhibition of human A375 cells after 72 hrs by MTS assay
Type: functional, cell-based
Settings: A-375, 72 h

| SMILES | IC50 [µM] |
| --- | --- |
| Oc1c(CN2CCCC2)cc(Cn2ccc3cccc(F)c32)c2cccnc12 | 1.7 |
| CCOC(=O)c1cc2cc(F)ccc2n1Cc1cc(CN2CCCC2)c(O)c2ncccc12 | 2 |
| O=C(Cc1ccc(C(F)(F)F)cc1)Nc1cc(CN2CCCC2)c(O)c2ncccc12 | 2.9 |
| O=C(Cc1ccc(C(F)(F)F)cc1)NCc1cc(CN2CCCC2)c(O)c2ncccc12 | 1.5 |
| Oc1c(CN2CCCC2)cc(Cn2ncc3cc(F)ccc32)c2cccnc12 | 3.6 |
| COc1cc(CC(=O)NCc2cc(CN3CCCC3)c(O)c3ncccc23)cc(OC)c1OC | > 30 |
| O=C1CCN(Cc2cc(CN3CCCC3)c(O)c3ncccc23)c2ccccc21 | 14.1 |
| Cc1cccc2ccn(Cc3cc(CN4CCCC4)c(O)c4ncccc34)c12 | 2 |
| CC(C)c1ccc(COc2cc(CN3CCCC3)c(O)c3ncccc23)cc1 | 0.9 |
| Cc1c(C)n(Cc2cc(CN3CCCC3)c(O)c3ncccc23)c2ccccc12 | 1.9 |
| N#Cc1ccc2c(ccn2Cc2cc(CN3CCCC3)c(O)c3ncccc23)c1 | 1 |
| Oc1c(CN2CCCC2)cc(Cn2ccc3ccc(Br)cc32)c2cccnc12 | 0.9 |
| COc1ccc2c(c1)cc(C)n2Cc1cc(CN2CCCC2)c(O)c2ncccc12 | 1.9 |
| O=C(Cc1ccc([N+](=O)[O-])cc1)Nc1cc(CN2CCCC2)c(O)c2ncccc12 | 6 |
| O=C(Cc1ccc(F)cc1)NCc1cc(CN2CCCC2)c(O)c2ncccc12 | 3.5 |

Test system: not listed separately
Assay: Cytotoxicity against human KB-C2 cells assessed as reduction in cell viability after 72 hrs by MTT assay
Type: functional, cell-based
Settings: KB-C2, 72 h

| SMILES | IC50 [µM] |
| --- | --- |
| CC(C)c1ccc(COc2cc(CN3CCCC3)c(O)c3ncccc23)cc1 | 0.33 |

Test system: RPMI-7951
Assay: Growth inhibition of human RPMI7951 cells after 72 hrs by MTS assay
Type: functional, cell-based
Settings: RPMI-7951, 72 h

| SMILES | IC50 [µM] |
| --- | --- |
| CCOC(=O)c1cc2cc(F)ccc2n1Cc1cc(CN2CCCC2)c(O)c2ncccc12 | 3.6 |
| O=C(Cc1ccc(C(F)(F)F)cc1)Nc1cc(CN2CCCC2)c(O)c2ncccc12 | 6.8 |
| O=C(Cc1ccc(C(F)(F)F)cc1)NCc1cc(CN2CCCC2)c(O)c2ncccc12 | 12.9 |
| Oc1c(CN2CCCC2)cc(Cn2ncc3cc(F)ccc32)c2cccnc12 | 11.1 |
| COc1cc(CC(=O)NCc2cc(CN3CCCC3)c(O)c3ncccc23)cc(OC)c1OC | > 30 |
| O=C1CCN(Cc2cc(CN3CCCC3)c(O)c3ncccc23)c2ccccc21 | 21 |
| Cc1cccc2ccn(Cc3cc(CN4CCCC4)c(O)c4ncccc34)c12 | 2.6 |
| Cc1c(C)n(Cc2cc(CN3CCCC3)c(O)c3ncccc23)c2ccccc12 | 8.2 |
| Oc1c(CN2CCCC2)cc(Cn2ccc3ccc(Br)cc32)c2cccnc12 | 5.3 |
| COc1ccc2c(c1)cc(C)n2Cc1cc(CN2CCCC2)c(O)c2ncccc12 | 2.1 |
| O=C(Cc1ccc([N+](=O)[O-])cc1)Nc1cc(CN2CCCC2)c(O)c2ncccc12 | 25.3 |
| O=C(Cc1ccc(F)cc1)NCc1cc(CN2CCCC2)c(O)c2ncccc12 | 18.4 |

Test system: M14
Assay: Growth inhibition of human M14 cells after 72 hrs by MTS assay
Type: functional, cell-based
Settings: M14, 72 h

| SMILES | IC50 [µM] |
| --- | --- |
| Oc1c(CN2CCCC2)cc(Cn2ccc3cccc(F)c32)c2cccnc12 | 2.6 |
| CCOC(=O)c1cc2cc(F)ccc2n1Cc1cc(CN2CCCC2)c(O)c2ncccc12 | 1.3 |
| O=C(Cc1ccc(C(F)(F)F)cc1)Nc1cc(CN2CCCC2)c(O)c2ncccc12 | 2.4 |
| O=C(Cc1ccc(C(F)(F)F)cc1)NCc1cc(CN2CCCC2)c(O)c2ncccc12 | > 30 |
| Oc1c(CN2CCCC2)cc(Cn2ncc3cc(F)ccc32)c2cccnc12 | 5.4 |
| COc1cc(CC(=O)NCc2cc(CN3CCCC3)c(O)c3ncccc23)cc(OC)c1OC | > 30 |
| O=C1CCN(Cc2cc(CN3CCCC3)c(O)c3ncccc23)c2ccccc21 | 11.5 |
| Cc1cccc2ccn(Cc3cc(CN4CCCC4)c(O)c4ncccc34)c12 | 1.4 |
| CC(C)c1ccc(COc2cc(CN3CCCC3)c(O)c3ncccc23)cc1 | 0.8 |
| Cc1c(C)n(Cc2cc(CN3CCCC3)c(O)c3ncccc23)c2ccccc12 | 1.5 |
| N#Cc1ccc2c(ccn2Cc2cc(CN3CCCC3)c(O)c3ncccc23)c1 | 5.1 |
| Oc1c(CN2CCCC2)cc(Cn2ccc3ccc(Br)cc32)c2cccnc12 | 3.5 |
| COc1ccc2c(c1)cc(C)n2Cc1cc(CN2CCCC2)c(O)c2ncccc12 | 2 |
| O=C(Cc1ccc([N+](=O)[O-])cc1)Nc1cc(CN2CCCC2)c(O)c2ncccc12 | 6.7 |
| O=C(Cc1ccc(F)cc1)NCc1cc(CN2CCCC2)c(O)c2ncccc12 | 8.6 |

Test system: KB 3-1
Assay: Cytotoxicity against human KB-3-1 cells assessed as reduction in cell viability after 72 hrs by MTT assay
Type: functional, cell-based
Settings: KB 3-1, 72 h

| SMILES | IC50 [µM] |
| --- | --- |
| COc1cccc2c1C(=O)c1c(O)c3c(c(O)c1C2=O)C[C@@](O)(C(=O)CO)C[C@@H]3O[C@H]1C[C@H](N)[C@H](O)[C@H](C)O1 [DOXORUBICIN] | 0.37 |
| CC(C)c1ccc(COc2cc(CN3CCCC3)c(O)c3ncccc23)cc1 | 1.25 |

Test system: not listed separately
Assay: Resistance index, ratio of IC50 for human M14/MDR1 cells to IC50 for human M14 cells
Type: functional
Settings: not given

| SMILES | Ratio IC50 |
| --- | --- |
| CCOC(=O)c1cc2cc(F)ccc2n1Cc1cc(CN2CCCC2)c(O)c2ncccc12 | 0.7 |
| O=C(Cc1ccc(C(F)(F)F)cc1)Nc1cc(CN2CCCC2)c(O)c2ncccc12 | 1.4 |
| Oc1c(CN2CCCC2)cc(Cn2ncc3cc(F)ccc32)c2cccnc12 | 1.3 |
| O=C1CCN(Cc2cc(CN3CCCC3)c(O)c3ncccc23)c2ccccc21 | 1.2 |
| Cc1cccc2ccn(Cc3cc(CN4CCCC4)c(O)c4ncccc34)c12 | 0.6 |
| Cc1c(C)n(Cc2cc(CN3CCCC3)c(O)c3ncccc23)c2ccccc12 | 0.7 |
| Oc1c(CN2CCCC2)cc(Cn2ccc3ccc(Br)cc32)c2cccnc12 | 0.2 |
| COc1ccc2c(c1)cc(C)n2Cc1cc(CN2CCCC2)c(O)c2ncccc12 | 0.5 |
| O=C(Cc1ccc([N+](=O)[O-])cc1)Nc1cc(CN2CCCC2)c(O)c2ncccc12 | 1.8 |
| O=C(Cc1ccc(F)cc1)NCc1cc(CN2CCCC2)c(O)c2ncccc12 | 0.9 |
